Consider 11 molecules from ChEMBL document CHEMBL5223078, “Proteases and Their Modulators in Cancer Therapy: Challenges and Opportunities” (J Med Chem, 2021).

In general, DC50 refers to the concentration giving 50% degradation. As a reminder, the IC50 is the concentration at which inhibition is half-maximal.

For assay [1], the target named is Protein cereblon/Tyrosine-protein kinase BTK (Homo sapiens, UniProt Q06187+Q96SW2, C481S). Kind of assay: Protac activity at CRBN (unknown origin)/BTK C481S mutant (unknown origin) assessed as BTK C481S mutant degradation. The format is protein assay.
Sequence of Protein cereblon/Tyrosine-protein kinase BTK (Q06187 2-659 C481S limits assumed, stated change not applied): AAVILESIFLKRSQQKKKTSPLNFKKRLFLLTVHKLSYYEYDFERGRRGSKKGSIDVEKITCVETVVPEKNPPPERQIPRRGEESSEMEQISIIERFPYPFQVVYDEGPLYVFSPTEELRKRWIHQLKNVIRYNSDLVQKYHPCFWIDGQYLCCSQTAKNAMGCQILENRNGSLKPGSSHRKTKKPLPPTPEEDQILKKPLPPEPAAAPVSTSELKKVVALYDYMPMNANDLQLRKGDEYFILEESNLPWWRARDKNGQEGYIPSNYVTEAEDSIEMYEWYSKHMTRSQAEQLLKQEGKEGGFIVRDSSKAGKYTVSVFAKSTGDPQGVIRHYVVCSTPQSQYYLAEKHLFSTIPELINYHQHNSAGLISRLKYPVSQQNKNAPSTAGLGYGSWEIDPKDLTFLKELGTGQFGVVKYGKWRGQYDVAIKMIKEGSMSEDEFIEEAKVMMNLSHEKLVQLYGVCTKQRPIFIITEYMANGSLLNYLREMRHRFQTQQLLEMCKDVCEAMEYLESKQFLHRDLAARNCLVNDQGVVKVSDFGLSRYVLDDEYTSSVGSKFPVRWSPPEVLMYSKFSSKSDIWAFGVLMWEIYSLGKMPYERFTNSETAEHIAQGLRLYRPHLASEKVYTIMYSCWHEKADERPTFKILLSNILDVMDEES
Sequence of Protein cereblon/Tyrosine-protein kinase BTK (Q96SW2 whole entry, stated change not applied): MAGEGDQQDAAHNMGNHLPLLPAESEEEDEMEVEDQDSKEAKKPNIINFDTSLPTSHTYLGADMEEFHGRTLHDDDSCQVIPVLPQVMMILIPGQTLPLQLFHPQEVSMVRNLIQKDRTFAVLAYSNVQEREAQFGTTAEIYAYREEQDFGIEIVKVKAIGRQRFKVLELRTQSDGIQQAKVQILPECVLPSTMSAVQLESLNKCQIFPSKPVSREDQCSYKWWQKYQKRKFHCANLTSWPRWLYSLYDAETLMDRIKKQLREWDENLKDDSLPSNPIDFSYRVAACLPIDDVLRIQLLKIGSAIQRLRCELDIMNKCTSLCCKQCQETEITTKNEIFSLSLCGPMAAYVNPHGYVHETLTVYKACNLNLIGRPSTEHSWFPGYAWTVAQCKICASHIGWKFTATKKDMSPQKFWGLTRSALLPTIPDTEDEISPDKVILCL
Assay [2] has as its system MDA-MB-231. Nature of the assay: Antitumour activity against human MDA-MB-231 cells xenografted in mouse model assessed as reduction in ERRalpha level of tumor growth at 100 mg/kg, ip administered 3 times a day relative to control. The format is functional. The arrangement: scale not given: the % may be the effect or the level left. (In general: Xenograft models place foreign cells or tissue in a host animal.)

The test system of assay [3] is MDA-MB-231. Kind of assay: Antitumor activity against human MDA-MB-231 cells xenografted in mouse model assessed as reduction in ERRalpha level in mouse heart at 100 mg/kg, ip administered 3 times a day relative to control. The format is functional. More on the design: scale not given: the % may be the effect or the level left.
Assay [4] has as its system MDA-MB-231. Kind of assay: Antitumor activity against human MDA-MB-231 cells xenografted in mouse model assessed as reduction in ERRalpha level in mouse kidney at 100 mg/kg, ip administered 3 times a day relative to control. It is filed as functional. The arrangement: scale not given: the % may be the effect or the level left.
The target in assay [5] is 20S proteasome. Nature of the assay: Inhibition of 20S proteasome (unknown origin). It is filed as protein-complex assay, Homo sapiens.
Assay [6] relates to SUM-159-PT. Nature of the assay: Cytotoxicity against human SUM159PT cells assessed as cell growth inhibition measured after 72 hrs by MTS assay. The format is functional, cell-based.
Assay [7] concerns SUM-159-PT. Kind of assay: Inhibition of colony formation in human SUM159PT assessed as complete inhibition of cell growth measured after 48 hrs by crystal violet staining based analysis. It is filed as functional.
In assay [8] the target is von Hippel-Lindau disease tumor suppressor/GTPase KRas (Homo sapiens, UniProt P01116+P40337). Kind of assay: Protac activity at VHL E3 ligase/KRAS G12 degradation in human MDA-MB-231 cells assessed as […] by western blot analysis. The format is cell-based. For orientation: A western blot detects proteins with antibodies after separation by electrophoresis.
Sequence of von Hippel-Lindau disease tumor suppressor/GTPase KRas (P01116 whole entry): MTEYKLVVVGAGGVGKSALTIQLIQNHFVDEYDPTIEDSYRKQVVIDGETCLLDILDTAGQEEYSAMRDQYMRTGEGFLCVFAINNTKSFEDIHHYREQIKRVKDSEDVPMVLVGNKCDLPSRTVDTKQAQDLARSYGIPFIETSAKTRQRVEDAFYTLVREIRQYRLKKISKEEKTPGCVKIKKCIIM
Sequence of von Hippel-Lindau disease tumor suppressor/GTPase KRas (P40337 whole entry): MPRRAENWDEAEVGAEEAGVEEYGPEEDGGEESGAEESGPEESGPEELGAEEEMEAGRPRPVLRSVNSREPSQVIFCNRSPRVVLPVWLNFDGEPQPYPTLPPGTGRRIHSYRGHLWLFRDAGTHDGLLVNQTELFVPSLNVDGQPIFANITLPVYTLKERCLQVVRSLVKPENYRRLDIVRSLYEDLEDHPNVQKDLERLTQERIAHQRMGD
Assay [9] relates to OCI-AML2. Nature of the assay: Cytotoxicity against human OCI-AML2 cells assessed as cell growth inhibition measured after 72 hrs by spectrophotometry. It is filed as functional, cell-based. Particulars: OCI-AML2, 72 h.
For assay [10], the system named is OCI-AML-3. Kind of assay: Cytotoxicity against human OCI-AML-3 cells assessed as cell growth inhibition measured after 72 hrs by spectrophotometry. The format is functional, cell-based. Particulars: OCI-AML-3, 72 h.
In assay [11] the test system is HCT-116. Kind of assay: Antiproliferative activity against human HCT-116 cells assessed as reduction in cell viability at 200 nm measured after 72 hrs by MTS assay relative to control. The format is functional.
Assay [12] can be described thus: Cytotoxicity against human TEX cells assessed as cell growth inhibition measured after 72 hrs by spectrophotometry. The format is functional, cell-based.

As to `Nc1ncnc2c1c(-c1ccc(Oc3ccccc3)cc1)nn2[C@@H]1CCCN(C(=O)c2cn(CCOCCOCCOCCCc3cccc4c3C(=O)N(C3CCC(=O)NC3=O)C4=O)nn2)C1` (stereo partly drawn), the DC50 in assay [1] amounted to 50 nM. `COc1cc(/C=C2\SC(=O)N(CCOCCC(=O)N[C@@H](C(=O)N3C[C@H](O)C[C@H]3C(=O)NCc3ccc(-c4scnc4C)cc3)C(C)(C)C)C2=O)ccc1Oc1ccc(C#N)cc1C(F)(F)F`: the Activity in [2] is 39%; in [3], 44%; in [4] it was 44%. On to `CCCC[C@@H](C=O)NC(=O)[C@H](CC(C)C)NC(=O)[C@@H](CC(C)C)NC(=O)CC`, for which, in [5], inhibition was half-maximal at 90 nM (IC50).

On to `N#Cc1cccc(CN2CCC3=C(C2)C(=O)N(Cc2ccc(Cl)cc2)C2=NCCN23)c1`, for which the IC50 in [6] came to 7.4 nM.

On to `Cc1cccc(CN2CCc3c(c(=O)n(Cc4ccc(C(F)(F)F)cc4)c(=O)n3CCCN)C2)c1`, for which the IC50 in [6] was found to be 57 nM. Molecule `CC[C@H]1C(=O)NC2([C@@H](O)[C@@H]3C=CCCC3)C(=O)O[C@@H]12` (stereo partly drawn) displayed an IC50 in [5] of 90 nM. `Cn1c2c(c(=O)n(Cc3ccc(Cl)cc3)c1=O)CN(Cc1cccc(C#N)c1)CC2`: the IC50 in assay [6] was determined as 14 nM. In addition, the INH in [7] is 30 nM. On to `C#Cc1cccc(CN2CCC3=C(C2)C(=O)N(Cc2ccc(C)cc2)C2=NCCN23)c1`, for which the IC50 in assay [6] is 100 nM.

Turning to `C=C(F)C(=O)N1CCN(c2nc(OC[C@@H]3CCCN3CCCOCCC(=O)N[C@H](C(=O)N3C[C@H](O)C[C@H]3C(=O)NCc3ccc(-c4scnc4C)cc3)C(C)(C)C)nc3c2CCN(c2cccc4cccc(Cl)c24)C3)C[C@@H]1CC#N`, in [8], the DC50 is 250 nM. `O=C1C2=C(CCN(Cc3ccccc3)C2)N2CCN=C2N1Cc1ccc(C(F)(F)F)cc1`: the IC50 in assay [9] worked out at 76 nM; in assay [10], 60 nM; in assay [6], 77 nM; in [12] it was 71 nM. Moreover, the Activity in assay [11] was 10%. As to `N#Cc1cccc(CN2CCC3=C(C2)C(=O)N(Cc2ccc(C(F)(F)F)cc2)C2=NCCN23)c1`, the IC50 in assay [6] stood at 11 nM.
